Results: patent US20120195847A1 (Nektar Therapeutics, priority 2008, published 2012)

Columns and labels:
[1] = Stability of biphalin during pre-incubation under physiological-like conditions; type: physicochemical; details: 72 hour incubation in assay buffer, pH 7.5 at 37° C.
mice [2] = details: intracerebroventricular (i.c.v); cited from earlier work
mice [3] = details: intrathecally (i.t.); cited from earlier work
human δ opioid receptor = target: T1, human δ opioid receptor (Homo sapiens, UniProt P41143); assay: Radioligand competition binding assay, δ opioid receptor ([3H]DPDPE); details: 1 μM; pre-incubated 20 hours
T1 construct: expressed in transfected cells
T1 sequence (P41143 whole entry): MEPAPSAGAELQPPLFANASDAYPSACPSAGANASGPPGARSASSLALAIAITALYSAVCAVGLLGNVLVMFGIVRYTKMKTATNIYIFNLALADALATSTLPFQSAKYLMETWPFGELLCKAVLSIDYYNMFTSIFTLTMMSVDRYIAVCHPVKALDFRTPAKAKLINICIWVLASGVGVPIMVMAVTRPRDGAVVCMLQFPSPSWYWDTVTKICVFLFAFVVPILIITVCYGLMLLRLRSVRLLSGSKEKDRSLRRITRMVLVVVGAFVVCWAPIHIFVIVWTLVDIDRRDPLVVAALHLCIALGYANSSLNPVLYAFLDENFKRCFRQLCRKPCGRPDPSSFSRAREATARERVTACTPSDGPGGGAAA
Description: Competition binding experiments were conducted by incubating membrane protein to equilibrium in triplicate in the presence of a fixed concentration of radioligand and increasing concentrations (0.1 nM to 10 μM) of test compound in 100 μL final volume. The radioligands used were specific for each receptor type, and the assay conditions are described in Table BIP6.3. Following incubations, the membranes were rapidly filtered through GF/B filter plate (presoaked with 0.5% polyethyleneimine), washed four times with cold 50 mM Tris-HCl, pH 7.5, and the bound radioactivity was then measured. Non-specific binding was measured in the presence of excess naloxone (100 μM); this value was subtracted from the total binding to yield the specific binding at each test concentration.
The test compounds were stored under acidic condition to stabilize the PEG conjugation.
Ki (affinity of test compound) was obtained using the Cheng Prusoff correction using experimental Kd (affinity of radioligand) values that were previously determined under these assay conditions.

[4] = Stability of the conjugate during purification; type: physicochemical; details: reaction mixture, acidic pH values

| Compound | stability following incubation [1] | potency in eliciting antinociception compared with morphine (mice [2]) | potency compared with morphine, tail flick testing (mice [3]) | inhibition of specific binding at the highest test concentration (human δ opioid receptor) | stability of the conjugate [4] |
| --- | --- | --- | --- | --- | --- |
| C[C@@H](NC(=O)[C@@H](N)Cc1ccc(O)cc1)C(=O)NCC(=O)N[C@@H](Cc1ccccc1)C(=O)NNC(=O)[C@H](Cc1ccccc1)NC(=O)CNC(=O)[C@@H](C)NC(=O)[C@@H](N)Cc1ccc(O)cc1 [Biphalin, Tyr-D-Ala-Gly-Phe-NH-NH-Phe-Gly-D-Ala-Tyr] | remained stable | 257 fold | 1000 fold | – | – |
| Di-mPEG-SBC-30K-biphalin: releasable di-conjugate of biphalin with N-m-PEG-Benzamide-p-Succinimidyl Carbonate (m-PEG-SBC-30K); not purified | – | – | – | ≤ 50% | instability of the conjugate, even at acidic pH values |
